#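 These data come from cells grown in 96-well plates and exposed to compound for 48 hours at five concentrations. The concentration for 50% growth inhibition is given as GI50. TGI: total growth inhibition.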
# Experiments:
# Test in all cases: NCI anticancer screen, dose series, 48 h
# 786-0 renal = tested on: 786-0 renal
# A498 renal = tested on: A498 renal
# A549 NSCLC = tested on: A549 NSCLC
# ACHN renal = tested on: ACHN renal
# BT-549 breast = tested on: BT-549 breast
# CAKI-1 renal = tested on: CAKI-1 renal
# CCRF-CEM leukemia = tested on: CCRF-CEM leukemia
# COLO 205 colon = tested on: COLO 205 colon
# DU-145 prostate = tested on: DU-145 prostate
# EKVX NSCLC = tested on: EKVX NSCLC
# HCC-2998 colon = tested on: HCC-2998 colon
# HCT-116 colon = tested on: HCT-116 colon
# HCT-15 colon = tested on: HCT-15 colon
# HL-60(TB) leukemia = tested on: HL-60(TB) leukemia
# HOP-62 NSCLC = tested on: HOP-62 NSCLC
# HOP-92 NSCLC = tested on: HOP-92 NSCLC
# HS 578T breast = tested on: HS 578T breast
# HT29 colon = tested on: HT29 colon
# IGROV1 ovarian = tested on: IGROV1 ovarian
# K-562 leukemia = tested on: K-562 leukemia
# KM12 colon = tested on: KM12 colon
# LOX IMVI melanoma = tested on: LOX IMVI melanoma
# M14 melanoma = tested on: M14 melanoma
# MALME-3M melanoma = tested on: MALME-3M melanoma
# MCF7 breast = tested on: MCF7 breast
# MDA-MB-231 breast = tested on: MDA-MB-231 breast
# MDA-MB-435 = tested on: MDA-MB-435
# MOLT-4 leukemia = tested on: MOLT-4 leukemia
# NCI-H226 lung = tested on: NCI-H226 lung
# NCI-H23 lung = tested on: NCI-H23 lung
# NCI-H460 lung = tested on: NCI-H460 lung
# NCI-H522 lung = tested on: NCI-H522 lung
# NCI/ADR-RES ovarian = tested on: NCI/ADR-RES ovarian
# OVCAR-3 ovarian = tested on: OVCAR-3 ovarian
# OVCAR-4 ovarian = tested on: OVCAR-4 ovarian
# OVCAR-5 ovarian = tested on: OVCAR-5 ovarian
# OVCAR-8 ovarian = tested on: OVCAR-8 ovarian
# RPMI-8226 leukemia = tested on: RPMI-8226 leukemia
# SF-268 CNS = tested on: SF-268 CNS
# SF-295 CNS = tested on: SF-295 CNS
# SF-539 CNS = tested on: SF-539 CNS
# SK-MEL-28 melanoma = tested on: SK-MEL-28 melanoma
# SK-MEL-5 melanoma = tested on: SK-MEL-5 melanoma
# SK-OV-3 ovarian = tested on: SK-OV-3 ovarian
# SN12C renal = tested on: SN12C renal
# SNB-19 CNS = tested on: SNB-19 CNS
# SNB-75 CNS = tested on: SNB-75 CNS
# SW-620 colon = tested on: SW-620 colon
# TK-10 renal = tested on: TK-10 renal
# U251 CNS = tested on: U251 CNS
# UACC-257 melanoma = tested on: UACC-257 melanoma
# UACC-62 melanoma = tested on: UACC-62 melanoma
# UO-31 renal = tested on: UO-31 renal
# PC-3 prostate = tested on: PC-3 prostate
# RXF 393 renal = tested on: RXF 393 renal
# SK-MEL-2 melanoma = tested on: SK-MEL-2 melanoma
# SR leukemia = tested on: SR leukemia
smiles,measurement,setting,value
CC1=NN(c2nc(N)nc(C/C(N)=N/O)n2)C(C)(C)C1,TGI,786-0 renal,> 100 µM
same,TGI,A498 renal,> 100 µM
same,TGI,A549 NSCLC,> 100 µM
same,TGI,ACHN renal,> 100 µM
same,TGI,BT-549 breast,> 100 µM
same,TGI,CAKI-1 renal,> 100 µM
same,TGI,CCRF-CEM leukemia,> 100 µM
same,TGI,COLO 205 colon,> 100 µM
same,TGI,DU-145 prostate,> 100 µM
same,TGI,EKVX NSCLC,> 100 µM
same,TGI,HCC-2998 colon,> 100 µM
same,TGI,HCT-116 colon,> 100 µM
same,TGI,HCT-15 colon,> 100 µM
same,TGI,HL-60(TB) leukemia,> 100 µM
same,TGI,HOP-62 NSCLC,> 100 µM
same,TGI,HOP-92 NSCLC,> 100 µM
same,TGI,HS 578T breast,> 100 µM
same,TGI,HT29 colon,> 100 µM
same,TGI,IGROV1 ovarian,> 100 µM
same,TGI,K-562 leukemia,> 100 µM
same,TGI,KM12 colon,> 100 µM
same,TGI,LOX IMVI melanoma,> 100 µM
same,TGI,M14 melanoma,> 100 µM
same,TGI,MALME-3M melanoma,> 100 µM
same,TGI,MCF7 breast,> 100 µM
same,TGI,MDA-MB-231 breast,> 100 µM
same,TGI,MDA-MB-435,> 100 µM
same,TGI,MOLT-4 leukemia,> 100 µM
same,TGI,NCI-H226 lung,> 100 µM
same,TGI,NCI-H23 lung,> 100 µM
same,TGI,NCI-H460 lung,> 100 µM
same,TGI,NCI-H522 lung,> 100 µM
same,TGI,NCI/ADR-RES ovarian,> 100 µM
same,TGI,OVCAR-3 ovarian,> 100 µM
same,TGI,OVCAR-4 ovarian,> 100 µM
same,TGI,OVCAR-5 ovarian,> 100 µM
same,TGI,OVCAR-8 ovarian,> 100 µM
same,TGI,RPMI-8226 leukemia,> 100 µM
same,TGI,SF-268 CNS,> 100 µM
same,TGI,SF-295 CNS,> 100 µM
same,TGI,SF-539 CNS,> 100 µM
same,TGI,SK-MEL-28 melanoma,> 100 µM
same,TGI,SK-MEL-5 melanoma,> 100 µM
same,TGI,SK-OV-3 ovarian,> 100 µM
same,TGI,SN12C renal,> 100 µM
same,TGI,SNB-19 CNS,> 100 µM
same,TGI,SNB-75 CNS,> 100 µM
same,TGI,SW-620 colon,> 100 µM
same,TGI,TK-10 renal,> 100 µM
same,TGI,U251 CNS,> 100 µM
same,TGI,UACC-257 melanoma,> 100 µM
same,TGI,UACC-62 melanoma,> 100 µM
same,TGI,UO-31 renal,> 100 µM
O=C1C=CC(=O)N1c1cccc(N2C(=O)C=CC2=O)c1,GI50,786-0 renal,1.84 µM
same,TGI,786-0 renal,3.44 µM
same,GI50,A498 renal,16.2 µM
same,TGI,A498 renal,31.1 µM
same,GI50,A549 NSCLC,19.3 µM
same,TGI,A549 NSCLC,45.4 µM
same,GI50,ACHN renal,1.77 µM
same,TGI,ACHN renal,3.21 µM
same,GI50,BT-549 breast,7.51 µM
same,TGI,BT-549 breast,20.2 µM
same,GI50,CCRF-CEM leukemia,2.27 µM
same,TGI,CCRF-CEM leukemia,7.65 µM
same,GI50,COLO 205 colon,1.39 µM
same,TGI,COLO 205 colon,2.88 µM
same,GI50,DU-145 prostate,10.9 µM
same,TGI,DU-145 prostate,22.8 µM
same,GI50,EKVX NSCLC,19.1 µM
same,TGI,EKVX NSCLC,83.1 µM
same,GI50,HCC-2998 colon,12.9 µM
same,TGI,HCC-2998 colon,26.4 µM
same,GI50,HCT-116 colon,1.7 µM
same,TGI,HCT-116 colon,3.22 µM
same,GI50,HCT-15 colon,1.91 µM
same,TGI,HCT-15 colon,3.93 µM
same,GI50,HL-60(TB) leukemia,1.79 µM
same,TGI,HL-60(TB) leukemia,5.12 µM
same,GI50,HOP-62 NSCLC,16.8 µM
same,TGI,HOP-62 NSCLC,33.5 µM
same,GI50,HOP-92 NSCLC,1.75 µM
same,TGI,HOP-92 NSCLC,3.78 µM
same,GI50,HS 578T breast,2.17 µM
same,TGI,HS 578T breast,5.73 µM
same,GI50,HT29 colon,2.3 µM
same,TGI,HT29 colon,4.94 µM
same,GI50,IGROV1 ovarian,2.38 µM
same,TGI,IGROV1 ovarian,5.52 µM
same,GI50,K-562 leukemia,2.67 µM
same,TGI,K-562 leukemia,7.7 µM
same,GI50,KM12 colon,8.33 µM
same,TGI,KM12 colon,22.7 µM
same,GI50,LOX IMVI melanoma,2.02 µM
same,TGI,LOX IMVI melanoma,4.02 µM
same,GI50,M14 melanoma,1.85 µM
same,TGI,M14 melanoma,3.71 µM
same,GI50,MALME-3M melanoma,3 µM
same,TGI,MALME-3M melanoma,6.94 µM
same,GI50,MCF7 breast,2.52 µM
same,TGI,MCF7 breast,5.52 µM
same,GI50,MDA-MB-231 breast,1.97 µM
same,TGI,MDA-MB-231 breast,4.53 µM
same,GI50,MDA-MB-435,3.85 µM
same,TGI,MDA-MB-435,16.2 µM
same,GI50,MOLT-4 leukemia,2.74 µM
same,TGI,MOLT-4 leukemia,7.73 µM
same,GI50,NCI-H226 lung,2.91 µM
same,TGI,NCI-H226 lung,7.63 µM
same,GI50,NCI-H23 lung,2.54 µM
same,TGI,NCI-H23 lung,7.07 µM
same,GI50,NCI-H460 lung,18.3 µM
same,TGI,NCI-H460 lung,38.6 µM
same,GI50,NCI-H522 lung,1.62 µM
same,TGI,NCI-H522 lung,3.04 µM
same,GI50,NCI/ADR-RES ovarian,2.38 µM
same,TGI,NCI/ADR-RES ovarian,6.14 µM
same,GI50,OVCAR-3 ovarian,2.04 µM
same,TGI,OVCAR-3 ovarian,3.54 µM
same,GI50,OVCAR-5 ovarian,1.81 µM
same,TGI,OVCAR-5 ovarian,4.06 µM
same,GI50,OVCAR-8 ovarian,2.25 µM
same,TGI,OVCAR-8 ovarian,5.17 µM
same,GI50,PC-3 prostate,13.4 µM
same,TGI,PC-3 prostate,31.6 µM
same,GI50,RPMI-8226 leukemia,2.94 µM
same,TGI,RPMI-8226 leukemia,7.19 µM
same,GI50,RXF 393 renal,1.7 µM
same,TGI,RXF 393 renal,3.1 µM
same,GI50,SF-268 CNS,7.09 µM
same,TGI,SF-268 CNS,19.8 µM
same,GI50,SF-295 CNS,21.2 µM
same,TGI,SF-295 CNS,44.5 µM
same,GI50,SF-539 CNS,1.84 µM
same,TGI,SF-539 CNS,3.46 µM
same,GI50,SK-MEL-2 melanoma,2.52 µM
same,TGI,SK-MEL-2 melanoma,5.55 µM
same,GI50,SK-MEL-28 melanoma,1.95 µM
same,TGI,SK-MEL-28 melanoma,3.78 µM
same,GI50,SK-MEL-5 melanoma,10.9 µM
same,TGI,SK-MEL-5 melanoma,23 µM
same,GI50,SK-OV-3 ovarian,18.2 µM
same,TGI,SK-OV-3 ovarian,32.1 µM
same,GI50,SN12C renal,2 µM
same,TGI,SN12C renal,5.31 µM
same,GI50,SNB-19 CNS,18.6 µM
same,TGI,SNB-19 CNS,35.8 µM
same,GI50,SNB-75 CNS,4.71 µM
same,TGI,SNB-75 CNS,18.3 µM
same,GI50,SR leukemia,3.07 µM
same,TGI,SR leukemia,> 100 µM
same,GI50,SW-620 colon,1.99 µM
same,TGI,SW-620 colon,3.87 µM
same,GI50,TK-10 renal,1.71 µM
same,TGI,TK-10 renal,3.13 µM
same,GI50,U251 CNS,11.4 µM
same,TGI,U251 CNS,25.2 µM
same,GI50,UACC-257 melanoma,1.65 µM
same,TGI,UACC-257 melanoma,3.32 µM
same,GI50,UACC-62 melanoma,2.48 µM
same,TGI,UACC-62 melanoma,9.46 µM
same,GI50,UO-31 renal,1.94 µM
same,TGI,UO-31 renal,4.11 µM
